Results as given in paper PMC6576746, “Rational discovery of dual-indication multi-target PDE/Kinase inhibitor for precision anti-cancer therapy using structural systems pharmacology” (PLoS Computational Biology, 2019).

What was measured:
[1] = biological target: T1, MAP2K5 (Homo sapiens, UniProt Q13163); experiment: KinomeScan competition binding assay; conditions: 10 μM levosimendan
T1 construct: DiscoverX KinomeScan panel kinase

[2] = biological target: PIP5K1A (Homo sapiens, UniProt Q99755); experiment: KinomeScan competition binding assay; design: DiscoverX KinomeScan panel kinase; conditions: 10 μM levosimendan
PIP5K1A, sequence (Q99755 whole entry): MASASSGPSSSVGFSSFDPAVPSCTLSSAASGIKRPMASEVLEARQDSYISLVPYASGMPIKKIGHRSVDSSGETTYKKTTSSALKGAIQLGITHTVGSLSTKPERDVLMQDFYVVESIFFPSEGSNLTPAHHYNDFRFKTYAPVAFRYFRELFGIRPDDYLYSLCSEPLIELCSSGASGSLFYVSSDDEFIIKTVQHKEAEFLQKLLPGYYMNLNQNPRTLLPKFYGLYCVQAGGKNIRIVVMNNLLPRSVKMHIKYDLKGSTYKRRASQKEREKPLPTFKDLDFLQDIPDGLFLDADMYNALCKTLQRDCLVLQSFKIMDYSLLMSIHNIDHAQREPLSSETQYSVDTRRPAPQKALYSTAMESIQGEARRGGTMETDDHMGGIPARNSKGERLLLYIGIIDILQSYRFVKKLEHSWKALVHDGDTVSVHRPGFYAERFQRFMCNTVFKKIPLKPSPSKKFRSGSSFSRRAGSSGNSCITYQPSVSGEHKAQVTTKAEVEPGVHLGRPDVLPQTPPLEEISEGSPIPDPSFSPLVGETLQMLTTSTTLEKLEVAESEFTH

[3] = biological target: T2, FLT3 (Homo sapiens, UniProt P36888); experiment: KinomeScan competition binding assay; conditions: 10 μM levosimendan
T2 construct: DiscoverX KinomeScan panel kinase
T2 sequence (P36888 27-993): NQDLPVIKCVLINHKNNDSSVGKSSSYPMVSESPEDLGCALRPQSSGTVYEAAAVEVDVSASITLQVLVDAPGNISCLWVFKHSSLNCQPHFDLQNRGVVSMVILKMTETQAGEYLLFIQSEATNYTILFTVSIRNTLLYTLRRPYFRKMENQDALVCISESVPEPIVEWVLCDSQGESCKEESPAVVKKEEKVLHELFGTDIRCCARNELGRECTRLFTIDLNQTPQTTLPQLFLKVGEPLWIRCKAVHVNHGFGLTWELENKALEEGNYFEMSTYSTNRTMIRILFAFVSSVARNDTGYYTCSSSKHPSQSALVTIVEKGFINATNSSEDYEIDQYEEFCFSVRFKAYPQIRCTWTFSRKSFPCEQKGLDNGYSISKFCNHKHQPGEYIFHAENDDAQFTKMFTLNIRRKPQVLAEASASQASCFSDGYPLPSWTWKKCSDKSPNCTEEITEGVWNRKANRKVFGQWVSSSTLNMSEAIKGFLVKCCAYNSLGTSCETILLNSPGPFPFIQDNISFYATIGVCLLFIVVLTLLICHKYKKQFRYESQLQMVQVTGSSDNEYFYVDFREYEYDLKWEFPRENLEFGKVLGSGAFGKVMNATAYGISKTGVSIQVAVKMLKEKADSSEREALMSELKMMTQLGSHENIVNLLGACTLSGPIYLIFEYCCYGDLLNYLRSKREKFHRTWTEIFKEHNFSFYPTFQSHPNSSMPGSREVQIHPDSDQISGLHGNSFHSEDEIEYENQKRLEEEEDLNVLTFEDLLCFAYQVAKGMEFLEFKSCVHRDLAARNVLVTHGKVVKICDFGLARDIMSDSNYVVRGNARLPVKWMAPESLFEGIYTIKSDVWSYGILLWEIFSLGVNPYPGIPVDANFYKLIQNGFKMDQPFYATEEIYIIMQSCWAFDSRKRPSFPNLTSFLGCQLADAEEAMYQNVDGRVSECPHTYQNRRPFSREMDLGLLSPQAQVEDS

[4] = test system: OVCAR3; experiment: cells; design: species or system panel of human cancer cell lines; Eurofins OncoPanel proliferation; nuclei count by high-content fluorescence imaging, 10-point dose response; conditions: Homo sapiens, OVCAR-3, 72 h, cell count, 3 days
How it was run: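 Ten half-log concentrations from 100 μM (0.1% DMSO max) applied one day post-seeding, 3-day exposure at 37°C; untreated time-zero plate for GI50. Readout is nuclear cell count by automated fluorescence imaging, giving EC50, IC50, GI50 and 0–10 activity area.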

[5] = biological target: T3, MYLK4 (Homo sapiens, UniProt Q86YV6); experiment: KinomeScan competition binding assay; design: DiscoverX KinomeScan panel kinase; conditions: 100 μM levosimendan
T3 sequence (Q86YV6 1-388): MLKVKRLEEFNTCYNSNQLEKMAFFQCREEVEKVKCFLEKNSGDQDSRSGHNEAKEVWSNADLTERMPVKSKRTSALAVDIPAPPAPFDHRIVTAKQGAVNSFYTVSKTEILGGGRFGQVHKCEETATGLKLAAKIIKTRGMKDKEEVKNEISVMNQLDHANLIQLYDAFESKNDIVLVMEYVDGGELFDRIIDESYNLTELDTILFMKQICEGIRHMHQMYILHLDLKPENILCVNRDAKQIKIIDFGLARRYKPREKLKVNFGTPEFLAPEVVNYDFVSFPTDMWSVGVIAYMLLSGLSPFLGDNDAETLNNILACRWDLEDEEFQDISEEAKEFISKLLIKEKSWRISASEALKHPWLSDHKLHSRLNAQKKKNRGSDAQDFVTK

[6] = biological target: T4, RIOK1 (serine/threonine-protein kinase RIOK1) (Homo sapiens, UniProt Q9BRS2); experiment: KinomeScan competition binding assay, dose-response; conditions: DiscoverX; Hill equation fit
T4 construct: DiscoverX KinomeScan panel kinase
T4 sequence (Q9BRS2 whole entry): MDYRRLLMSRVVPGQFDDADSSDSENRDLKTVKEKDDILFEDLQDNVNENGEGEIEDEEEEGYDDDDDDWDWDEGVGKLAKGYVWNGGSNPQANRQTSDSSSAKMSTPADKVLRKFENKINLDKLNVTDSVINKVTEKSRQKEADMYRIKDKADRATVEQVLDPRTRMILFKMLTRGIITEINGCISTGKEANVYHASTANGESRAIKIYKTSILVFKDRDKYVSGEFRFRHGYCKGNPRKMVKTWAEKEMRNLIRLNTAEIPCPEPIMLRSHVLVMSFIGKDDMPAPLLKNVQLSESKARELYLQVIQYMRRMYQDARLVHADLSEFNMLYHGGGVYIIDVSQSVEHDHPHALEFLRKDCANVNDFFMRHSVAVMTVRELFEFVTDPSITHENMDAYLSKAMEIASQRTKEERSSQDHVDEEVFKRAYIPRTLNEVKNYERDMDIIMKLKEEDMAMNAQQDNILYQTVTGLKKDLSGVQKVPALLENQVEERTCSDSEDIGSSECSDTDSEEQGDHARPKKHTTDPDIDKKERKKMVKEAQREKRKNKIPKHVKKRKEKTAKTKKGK

[7] = biological target: T5, RIOK3 (Homo sapiens, UniProt O14730); experiment: KinomeScan competition binding assay; design: DiscoverX KinomeScan panel kinase; conditions: 10 μM and 100 μM levosimendan
T5 sequence (O14730 1-519): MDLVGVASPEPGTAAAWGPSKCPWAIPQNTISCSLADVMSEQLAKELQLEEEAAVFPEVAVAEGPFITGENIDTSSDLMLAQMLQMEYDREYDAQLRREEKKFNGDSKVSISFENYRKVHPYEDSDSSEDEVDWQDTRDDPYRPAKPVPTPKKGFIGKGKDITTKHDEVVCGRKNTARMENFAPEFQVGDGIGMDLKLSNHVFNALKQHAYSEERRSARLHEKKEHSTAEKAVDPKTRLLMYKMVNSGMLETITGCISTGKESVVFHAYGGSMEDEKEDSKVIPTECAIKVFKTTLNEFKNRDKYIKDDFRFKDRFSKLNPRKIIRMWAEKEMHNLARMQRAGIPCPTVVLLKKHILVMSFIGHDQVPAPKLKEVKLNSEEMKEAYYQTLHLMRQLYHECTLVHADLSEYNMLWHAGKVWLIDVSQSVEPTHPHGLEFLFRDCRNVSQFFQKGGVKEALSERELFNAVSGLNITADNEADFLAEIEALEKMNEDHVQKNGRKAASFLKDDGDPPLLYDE

T1 sequence (Q13163 whole entry): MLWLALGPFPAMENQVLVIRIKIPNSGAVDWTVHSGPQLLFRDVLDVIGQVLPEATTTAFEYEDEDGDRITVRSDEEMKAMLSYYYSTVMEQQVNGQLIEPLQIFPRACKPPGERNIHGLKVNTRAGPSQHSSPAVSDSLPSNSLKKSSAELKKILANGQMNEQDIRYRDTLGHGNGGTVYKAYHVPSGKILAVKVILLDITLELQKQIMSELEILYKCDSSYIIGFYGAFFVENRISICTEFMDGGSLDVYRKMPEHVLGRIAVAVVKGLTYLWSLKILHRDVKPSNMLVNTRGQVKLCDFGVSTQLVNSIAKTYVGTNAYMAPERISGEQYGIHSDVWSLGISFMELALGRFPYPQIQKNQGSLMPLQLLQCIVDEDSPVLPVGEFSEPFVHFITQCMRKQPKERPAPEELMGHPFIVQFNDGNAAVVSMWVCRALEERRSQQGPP

C[C@@H]1CC(=O)NN=C1c1ccc(NN=C(C#N)C#N)cc1 [levosimendan]
percentage control at 10 μM [1]: < 30.0%
percentage control at 10 μM [2]: < 30.0%
percentage control at 10 μM [3]: < 30.0%
IC50 ([4]; 50% of maximum possible response): 42.6 µM
GI50 ([4]; corrected for time zero): 24.1 µM
EC50 ([4]; curve inflection point): 42.6 µM
percentage control at 100 μM [5]: two have intermediate binding affinities (MYLK4 and CAMK2)
Kd [6]: 820 nM
percentage control [7]: RIOK3, the closest homolog of RIOK1, showed the similar binding strength as RIOK1
